Laboratory results published in paper PMC3927474, “Whole body synthesis rates of DHA from α-linolenic acid are greater than brain DHA accretion and uptake rates in adult rats” (Journal of Lipid Research, 2014).

Tests used:
[1] = rats; cited from earlier work
[2] = Whole body fatty acids by GC-FID, balance study; assay type: in vivo, rat; conditions: 15 wk diet
Description: Carcasses were thawed overnight in a refrigerator at 3°C, cut into pieces, and passed through a #12 hand grinder. After the whole body had passed through the grinder once, the homogenate was mixed together by hand and passed at least one more time through the grinder until the mixture was sufficiently homogeneous. Due to the small size of the pups all of the 21-day-old pup bodies were passed through the grinder together.
A portion of the whole body homogenate was weighed and further homogenized (done in duplicate for each 18-week-old rat and the baseline homogenate) using a Polytron benchtop homogenizer (Brinkman Instruments, Toronto, ON, Canada) in a mixture of chloroform:methanol:0.88%KCl (2:1:0.8 by volume) ([28]). The mixture was centrifuged at 500 g for 10 min, and the chloroform layer was extracted. New chloroform was added to the remaining aqueous phase, the mixture was once again centrifuged, and the chloroform layer was extracted and added to the previously extracted chloroform layer. This total lipid extract (TLE) was evaporated under N2, reconstituted in a known volume of chloroform, and stored under N2 at −80°C until further analysis.
A known amount of heptadecanoic acid (17:0; Nu-Check Prep, Elysian, MN) was added to the TLE. Samples were transmethylated using 14% boron trifluoride in methanol at 100°C for 1 h. Fatty acid methyl esters (FAMEs) were extracted with hexane and quantified using GC-FID. FAMEs were analyzed using a Varian-430 gas chromatograph (Varian, Lake Forest, CA) equipped with a Varian FactorFour capillary column (VF-23ms; 30 m × 0.25 mm interior diameter × 0.25 μm film thickness) and a FID. Samples were injected in splitless mode. The injector and detector ports were set at 250°C. […] The carrier gas was helium, set to a constant flow rate of 0.7 ml/min. Peaks were identified by retention times of authentic FAME standards (Nu-Chek Prep). The concentration of each fatty acid was calculated by comparison with the internal standard (17:0) ([29]). The concentrations were expressed on a per gram basis then multiplied by total weight of the tissue to determine the total amount of each fatty acid in the tissue.

CC/C=C\C/C=C\C/C=C\CCCCCCCC(=O)O [ALA, α-linolenic acid]
DHA synthesis rate from ALA (steady-state infusion) [1]: 9.8 µmol/day | Whole body fatty acids: 12:0 [2]: 23532 µmol | Whole body fatty acids: 14:0 [2]: 17606 µmol | Whole body fatty acids: 14:1n-7 [2]: 1331 µmol | Whole body fatty acids: 16:0 [2]: 44604 µmol | Whole body fatty acids: 16:1n-7 [2]: 16111 µmol | Whole body fatty acids: 18:0 [2]: 6101 µmol | Whole body fatty acids: 18:1n-7 [2]: 7553 µmol | Whole body fatty acids: 18:1n-9 [2]: 38781 µmol | Whole body fatty acids: 18:2n-6 [2]: 29104 µmol | Whole body fatty acids: 18:3n-3 [2]: 1557 µmol | Whole body fatty acids: 18:3n-6 [2]: 67 µmol | Whole body fatty acids: 20:1n-9 [2]: 189 µmol | Whole body fatty acids: 20:2 [2]: 194 µmol | Whole body fatty acids: 20:3n-3 [2]: 137 µmol | Whole body fatty acids: 22:4n-6 [2]: 155 µmol | Whole body fatty acids: 22:5n-3 [2]: 101 µmol | Whole body fatty acids: 22:5n-6 [2]: 124 µmol | Whole body fatty acids: ARA (20:4n-6) [2]: 1954 µmol | Whole body fatty acids: DHA (22:6n-3) [2]: 481 µmol | Whole body fatty acids: EPA (20:5n-3) [2]: 76 µmol
